Source: patent US7951834B2, “Angiotensin I-converting enzyme (ACE) inhibitors” (University of Cape Town, priority 2005, dated 2011)

What was measured:
[1] = target: tACEdelta36NJ (tACE, C domain) (Homo sapiens, UniProt P12821); assay: ACE inhibitory activity, fluorometric determination of phthaldialdehyde-derivatised His-Leu, tACE; type: biochemical; conditions: for inhibitory activity for ACE as compared to lisinopril: in words; for Ki: substrate ZPHL, enzyme + inhibitor incubated 3 hours at ambient temperature
Method: (§1) The ACE inhibitory activity (as tabulated in Table 1) was measured by the fluorometric determination of phthaldialdehyde-derivatised histidylleucine, a product of the enzyme reaction according to the method of Almquist et al.,^12 with some modifications. For tACEdelta36NJ and N-domain inhibition using Z-Phe-His-Leu as substrate:—10 μL of 0.05 mg/mL enzyme+120 μL inhibitor was incubated at ambient temperature for 3 hours. Inhibitor concentrations ranged from 2.0 μM to 500 μM. A 3.0 μL aliquot of this was assayed for enzyme activity using 30 μL of 1.0 mM […]. This was incubated (in triplicate) for 30 mins at 37° C. and stopped with 180 μL solution of 0.28N NaOH. To this alkalized mixture 12 μL of o-phthaldialdehyde (150 mM) was added and the mixture incubated for another 10 mins at room temperature. Reactions were stopped by adding 26 μL of 3N HCl. Fluorescence was measured at Ex=360 nm; Em=486 nm, 5×5 slit width along with a His-Leu standard calibration curve fluorometer: Varian Cary Eclipse plate reader.
(§2) All assays included enzyme incubated with buffer in the absence of inhibitor (i.e. 0 μM inhibitor concentration).

ACE N-domain = ACE N-domain (Homo sapiens, UniProt P12821); assay: ACE inhibitory activity, fluorometric determination of phthaldialdehyde-derivatised His-Leu, N-domain; type: biochemical; conditions: substrate ZPHL; enzyme + inhibitor incubated 3 hours at ambient temperature; read-out: Ki (N-dom) ZPHL
Method: as §1, §2

Sequence of tACEdelta36NJ (tACE, C domain) (P12821 642-1230 limits assumed): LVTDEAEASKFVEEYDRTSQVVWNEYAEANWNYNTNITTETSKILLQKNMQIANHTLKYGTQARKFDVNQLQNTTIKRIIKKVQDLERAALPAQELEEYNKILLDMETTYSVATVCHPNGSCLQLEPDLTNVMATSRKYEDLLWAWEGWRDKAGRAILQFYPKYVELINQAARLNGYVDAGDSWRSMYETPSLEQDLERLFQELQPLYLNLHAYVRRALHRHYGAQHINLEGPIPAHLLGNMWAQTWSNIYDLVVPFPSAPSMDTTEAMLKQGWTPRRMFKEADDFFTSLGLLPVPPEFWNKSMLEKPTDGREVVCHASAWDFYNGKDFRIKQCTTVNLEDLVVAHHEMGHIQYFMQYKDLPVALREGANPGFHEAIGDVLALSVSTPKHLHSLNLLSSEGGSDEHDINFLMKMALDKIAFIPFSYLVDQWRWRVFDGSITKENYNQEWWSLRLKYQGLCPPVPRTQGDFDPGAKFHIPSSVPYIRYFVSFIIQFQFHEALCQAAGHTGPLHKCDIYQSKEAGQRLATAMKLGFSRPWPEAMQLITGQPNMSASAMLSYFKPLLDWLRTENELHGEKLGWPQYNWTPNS
Sequence of ACE N-domain (P12821 40-624 limits assumed): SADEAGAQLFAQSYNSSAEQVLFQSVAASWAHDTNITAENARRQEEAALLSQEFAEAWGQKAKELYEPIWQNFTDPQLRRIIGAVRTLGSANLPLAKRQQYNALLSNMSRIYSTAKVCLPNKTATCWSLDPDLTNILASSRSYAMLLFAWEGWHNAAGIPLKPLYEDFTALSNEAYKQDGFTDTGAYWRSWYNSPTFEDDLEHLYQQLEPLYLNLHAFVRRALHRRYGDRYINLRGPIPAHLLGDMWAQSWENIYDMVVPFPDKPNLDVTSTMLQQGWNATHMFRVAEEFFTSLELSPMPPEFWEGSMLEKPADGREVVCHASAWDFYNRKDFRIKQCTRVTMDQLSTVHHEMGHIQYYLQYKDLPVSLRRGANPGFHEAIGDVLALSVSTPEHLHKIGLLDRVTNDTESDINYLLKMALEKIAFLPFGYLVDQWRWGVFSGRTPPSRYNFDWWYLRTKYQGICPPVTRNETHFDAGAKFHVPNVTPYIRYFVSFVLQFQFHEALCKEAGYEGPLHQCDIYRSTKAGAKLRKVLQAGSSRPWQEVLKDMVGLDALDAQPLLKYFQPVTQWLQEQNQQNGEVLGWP

SMILES | inhibitory activity for ACE as compared to lisinopril [1] | domain selectivity (in words) ([1]; N-domain versus tACE (C domain)) | Ki [1] [µM] | Ki (ACE N-domain) [µM] | C-domain specific (fold) ([1]; tACE (C domain) versus N-domain) | melting point [°C]
O=C(N[C@@H](Cc1ccccc1)C(=O)CCC(=O)N1CCC[C@H]1C(=O)O)c1ccccc1 [Compound 5a, (5S)-5-[(N-benzoyl)amino]-4-oxo-6-phenyl-hexanoyl-L-proline] | weak inhibitory activity | – | – | – | – | –
CC(C)(C)OC(=O)N[C@@H](Cc1ccccc1)C(=O)CCC(=O)N1CCC[C@H]1C(=O)O [Compound 11a, (5S)-6-phenyl-5-[(tert-butyloxycarbonyl)-amino]-4-oxo-hexanoyl-L-proline] | weak inhibitory activity | inhibits N-domain more effectively than tACE | 144 | 33.6 | – | –
O=C(CCC(=O)[C@H](Cc1ccccc1)NC(=O)c1ccccc1)N[C@@H](Cc1ccccc1)C(=O)O [Compound 5c, (5S)-5-[(N-benzoyl)amino]-4-oxo-6-phenyl-hexanoyl-L-phenylalanine] | weak inhibitory activity | – | 23.7 | 84.3 | – | –
O=C(CCC(=O)[C@H](Cc1ccccc1)NC(=O)c1ccccc1)N[C@@H](Cc1c[nH]c2ccccc12)C(=O)O [Compound 5b, (5S)-5-[(N-benzoyl)amino]-4-oxo-6-phenyl-hexanoyl-L-tryptophan] | weak inhibitory activity | – | 0.8 | 196 | 245 | 171 to 173
CC(C)(C)OC(=O)N[C@@H](Cc1ccccc1)C(=O)CCC(=O)N[C@@H](Cc1c[nH]c2ccccc12)C(=O)O [Compound 11b, (5S)-6-phenyl-5-[(tert-butyloxycarbonyl)-amino]-4-oxo-hexanoyl-L-tryptophan] | – | – | – | – | – | 141 to 143
